Tested on: c-Met
Experiment: c-Met activation (ERK phosphorylation) by pro-HGF versus active HGF in HT29 and BSp73Asv4-7Δ15 cell lines, Western blot
Type: cell-based
Conditions: HT29 and BSp73Asv4-7Δ15 cells with competent CD44 isoforms, FIG. 5
Description: HGF/SF is secreted as single-stranded precursor which is processed by serum proteinases (Shimomura, 1995) or plasminogen activators of the urokinase type (Naldini, 1995) into an active a form and β subunits. Investigations into whether CD44 is involved in the activation of HGF was employed HGF precursor which was purchased and isolated from Drosophila Schneider cells (S2) for the activation of c-Met (FIG. 5).
(B) Western blot analyses to investigate the cleavage of the precursors pro-HGF (HGFp; enriched from Drosophila Schneider cells (S2)) into the active form HGFa by means of CD44 in the HT29 and BSp73Asv4-7Δ15 cell lines. The pro form is unable, despite the presence of competent CD44 isoforms, to mediate ERK phosphorylation by c-Met activation. In contrast thereto, processed, active HGF is capable, with the assistance of competent CD44 isoforms, of c-Met activation.
(C) Western blot analysis to investigate the cleavage of the precursor pro-HGF (HGFp; commercial) into the active form HGFa by means of CD44 in the HT29 and BSp73Asv4-7Δ15 cell lines. The pro form is unable, despite the presence of competent CD44-isoforms, to mediate ERK phosphorylation by c-Met activation. In contrast thereto, processed, active HGF is capable, with the assistance of competent CD44 isoforms, of c-Met activation.

Substance: pro-HGF: single-stranded HGF/SF precursor, purchased or isolated from Drosophila Schneider cells (S2)
- Ability to activate c-Met / mediate ERK phosphorylation: unable
- Ability to activate c-Met / mediate ERK phosphorylation (listed as pro form of HGF): unable to activate c-Met
